From PMC8699473, “An Easily Expandable Multi-Drug LC-MS Assay for the Simultaneous Quantification of 57 Oral Antitumor Drugs in Human Plasma” (Cancers, 2021)

Assay: Long-term stability in spiked pooled human plasma

SMILES	Long-term stability, 1 month, -20°C Accuracy [%] (validation standard 2xLLOV)	Long-term stability, 1 month, -80°C Accuracy [%] (validation standard 2xLLOV)	Long-term stability, 2 month, -20°C Accuracy [%] (validation standard 2xLLOV)	Long-term stability, 2 month, -80°C Accuracy [%] (validation standard 2xLLOV)	Long-term stability, 3 month, -20°C Accuracy [%] (validation standard 2xLLOV)	Long-term stability, 3 month, -80°C Accuracy [%] (validation standard 2xLLOV)	Long-term stability, 6 weeks, 4°C, without daylight Accuracy [%] (validation standard 2xLLOV)	Long-term stability, 1 month, -20°C Accuracy [%] (validation standard LLOV)	Long-term stability, 1 month, -80°C Accuracy [%] (validation standard LLOV)	Long-term stability, 2 month, -20°C Accuracy [%] (validation standard LLOV)	Long-term stability, 2 month, -80°C Accuracy [%] (validation standard LLOV)	Long-term stability, 3 month, -20°C Accuracy [%] (validation standard LLOV)	Long-term stability, 3 month, -80°C Accuracy [%] (validation standard LLOV)	Long-term stability, 6 weeks, 4°C, without daylight Accuracy [%] (validation standard LLOV)	Long-term stability, 1 month, -20°C Accuracy [%] (validation standard MOV)	Long-term stability, 1 month, -80°C Accuracy [%] (validation standard MOV)	Long-term stability, 2 month, -20°C Accuracy [%] (validation standard MOV)	Long-term stability, 2 month, -80°C Accuracy [%] (validation standard MOV)	Long-term stability, 3 month, -20°C Accuracy [%] (validation standard MOV)	Long-term stability, 3 month, -80°C Accuracy [%] (validation standard MOV)	other results
CNC(=O)c1ccc(N2C(=S)N(c3cnc(C#N)c(C(F)(F)F)c3)C(=O)C23CCC3)cc1F [Apalutamide]	94.7%	93.2%	91.6%	100.0%	85.1%	94.9%	73.5%	96.1%	100.0%	93.4%	102.3%	90.4%	98.4%	78.5%	89.4%	91.1%	90.2%	97.6%	86.8%	89.7%	Long-term stability, 6 weeks, 4°C, without daylight Accuracy [%] (validation standard MOV): 54.9%; Long-term stability, 1 month, -20°C Accuracy [%] (validation standard ULOV): 90.6%; Long-term stability, 1 month, -80°C Accuracy [%] (validation standard ULOV): 90.2%; Long-term stability, 2 month, -20°C Accuracy [%] (validation standard ULOV): 88.9%; Long-term stability, 2 month, -80°C Accuracy [%] (validation standard ULOV): 95.9%; Long-term stability, 3 month, -20°C Accuracy [%] (validation standard ULOV): 78.8%; Long-term stability, 3 month, -80°C Accuracy [%] (validation standard ULOV): 90.1%; Long-term stability, 6 weeks, 4°C, without daylight Accuracy [%] (validation standard ULOV): 48.1%
Cc1ccc(Nc2nccc(N(C)c3ccc4c(C)n(C)nc4c3)n2)cc1S(N)(=O)=O [Pazopanib]	99.1%	95.8%	100.4%	103.8%	106.9%	104.8%	96.5%	102.3%	97.4%	106.7%	108.3%	103.9%	103.6%	99.0%	96.3%	95.8%	98.8%	98.1%	103.3%	103.3%	Long-term stability, 6 weeks, 4°C, without daylight Accuracy [%] (validation standard MOV): 109.7%; Long-term stability, 1 month, -20°C Accuracy [%] (validation standard ULOV): 97.3%; Long-term stability, 1 month, -80°C Accuracy [%] (validation standard ULOV): 93.0%; Long-term stability, 2 month, -20°C Accuracy [%] (validation standard ULOV): 98.8%; Long-term stability, 2 month, -80°C Accuracy [%] (validation standard ULOV): 98.3%; Long-term stability, 3 month, -20°C Accuracy [%] (validation standard ULOV): 98.1%; Long-term stability, 3 month, -80°C Accuracy [%] (validation standard ULOV): 100.0%; Long-term stability, 6 weeks, 4°C, without daylight Accuracy [%] (validation standard ULOV): 98.9%
COc1cc2nccc(Oc3ccc(NC(=O)Nc4cc(C)on4)c(Cl)c3)c2cc1OC [Tivozanib]	101.4%	95.7%	98.9%	101.4%	96.9%	95.2%	93.9%	99.8%	96.0%	95.8%	100.7%	92.5%	97.1%	86.9%	97.4%	95.0%	102.0%	101.3%	100.0%	98.0%	Long-term stability, 6 weeks, 4°C, without daylight Accuracy [%] (validation standard MOV): 107.6%; Long-term stability, 1 month, -20°C Accuracy [%] (validation standard ULOV): 97.0%; Long-term stability, 1 month, -80°C Accuracy [%] (validation standard ULOV): 92.8%; Long-term stability, 2 month, -20°C Accuracy [%] (validation standard ULOV): 100.9%; Long-term stability, 2 month, -80°C Accuracy [%] (validation standard ULOV): 100.3%; Long-term stability, 3 month, -20°C Accuracy [%] (validation standard ULOV): 96.3%; Long-term stability, 3 month, -80°C Accuracy [%] (validation standard ULOV): 96.2%; Long-term stability, 6 weeks, 4°C, without daylight Accuracy [%] (validation standard ULOV): 100.6%
O=C(c1cc(Cc2n[nH]c(=O)c3ccccc23)ccc1F)N1CCN(C(=O)C2CC2)CC1 [Olaparib]	100.3%	98.2%	103.8%	103.3%	99.8%	103.3%	96.6%	112.8%	110.5%	115.9%	115.8%	111.4%	115.4%	105.6%	95.3%	92.9%	97.5%	96.8%	97.6%	96.7%	Long-term stability, 6 weeks, 4°C, without daylight Accuracy [%] (validation standard MOV): 107.5%; Long-term stability, 1 month, -20°C Accuracy [%] (validation standard ULOV): 99.1%; Long-term stability, 1 month, -80°C Accuracy [%] (validation standard ULOV): 98.1%; Long-term stability, 2 month, -20°C Accuracy [%] (validation standard ULOV): 102.1%; Long-term stability, 2 month, -80°C Accuracy [%] (validation standard ULOV): 101.1%; Long-term stability, 3 month, -20°C Accuracy [%] (validation standard ULOV): 98.9%; Long-term stability, 3 month, -80°C Accuracy [%] (validation standard ULOV): 100.7%; Long-term stability, 6 weeks, 4°C, without daylight Accuracy [%] (validation standard ULOV): 105.6%
